Consider 4 molecules from publication PMC10572428, “Possibility of Using Different Calcium Compounds for the Manufacture of Fresh Acid Rennet Cheese from Goat’s Milk” (Foods, 2023).

Read-outs that look alike come from different tables or passages of the source.

A short description of data set [1]: Thermal stability of goat milk proteins during pasteurization (90 °C, 15 s). Type of data set: physicochemical. As to conditions: doses up to 20 mg Ca per 100 g of milk. As to the method:
(§1) Doses of calcium (5, 10, 15, and 20 mg Ca 100 g^−1 milk), based on the calcium compound’s molecular weight, were added to 100 g of raw goat’s milk in the form of chloride, gluconate, lactate, and carbonate and tested to determine the pH value and thermal stability of milk. A control sample (0 mg Ca 100 g^−1 milk) was also prepared. The samples were heated in a water bath to 25 °C, mixed, and pasteurized (90 °C, 15 s). In the cooled (25 °C) samples of control milk and milk with calcium addition, the pH value was determined using a FiveEasy pH meter with an electrode InLab® Solids Pro-ISM (Mettler Toledo, Greifensee, Switzerland).

Data set [2] can be described thus: pH of fresh acid rennet cheese. Type of data set: physicochemical, goat. As to the method:
Fresh acid rennet cheese was produced following the methodology by Pawlos et al. (Scheme 1). The caprine milk was divided into batches, each containing 2000 g of milk, heated to 25 °C, and treated with varying amounts and dosages of calcium compound. The control sample (0 mg Ca per 100 g of milk) and milk with calcium addition (5, 10, 15, 20 mg Ca per 100 g of milk) were pasteurized in a water bath at 90 °C for 15 s. Subsequently, the milk was cooled to 28 °C, and each batch was inoculated with 0.20% (w/w) of starter culture for 15 min before adding 0.02% (v/w) of rennet. […] Acid rennet curds were then cut into 15 × 15 × 15 mm cubes and heated in a water bath at 35 °C for 1.5 h. Following this, the temperature was increased to 40 °C for 0.5 h. The whey was separated using cheesecloth, and the curds were transferred to molds, pressed (10 N kg^−1, 0.5 h) using a pneumatic cylinder press (Pneumatig, Gdynia, Poland), and refrigerated in labeled individual plastic containers at 4 °C for 24 h prior to analysis. All physicochemical analyses were conducted on ground cheese samples.
A pH meter (FiveEasy Mettler Toledo, Greifensee, Switzerland) and an electrode InLab® Solids Pro-ISM (Mettler Toledo, Greifensee, Switzerland) were used to determine the pH value in cheese.

A short description of data set [3]: pH value of goat's milk after pasteurization with added calcium compound. Type of data set: physicochemical. Here is the method: as §1
Data set [4] in a line: Texture profile analysis (TPA) of cheese. Type of data set: physicochemical, goat. As to the method:
Fresh acid rennet cheese was produced following the methodology by Pawlos et al. (Scheme 1). The caprine milk was divided into batches, each containing 2000 g of milk, heated to 25 °C, and treated with varying amounts and dosages of calcium compound. The control sample (0 mg Ca per 100 g of milk) and milk with calcium addition (5, 10, 15, 20 mg Ca per 100 g of milk) were pasteurized in a water bath at 90 °C for 15 s. Subsequently, the milk was cooled to 28 °C, and each batch was inoculated with 0.20% (w/w) of starter culture for 15 min before adding 0.02% (v/w) of rennet. The mixture was stirred and incubated at 28 °C until the pH reached 4.60 (±0.50) in a Cooled Incubator ILW 115 (POL-EKO Aparatura, Wodzisław Śląski, Poland). Acid rennet curds were then cut into 15 × 15 × 15 mm cubes and heated in a water bath at 35 °C for 1.5 h. Following this, the temperature was increased to 40 °C for 0.5 h. The whey was separated using cheesecloth, and the curds were transferred to molds, pressed (10 N kg^−1, 0.5 h) using a pneumatic cylinder press (Pneumatig, Gdynia, Poland), and refrigerated in labeled individual plastic containers at 4 °C for 24 h prior to analysis. All physicochemical analyses were conducted on ground cheese samples.
The texture profile analysis test (TPA) was performed with a CT3 Texture Analyzer and Texture Pro CT 1.2 software (Brookfield AMETEK, Middleboro, MA, USA). Before testing, cheese samples were cut (20 × 20 × 20 mm) and kept at a temperature of 10 °C ± 1 °C. Compression test was performed using a plastic plunger type TA3/100 (25.4 mm diameter) and configured with the following parameters: distance 15 mm, measurement speed 5 mm s^−1, contact load 1.00 N, and hold time 1 s. The TPA test was applied to measure cheese hardness (N), adhesiveness (mJ), cohesiveness, and springiness (mm).

Details of data set [5]: method as in doi:10.1111/j.1471-0307.2010.00613.x. As to conditions: 30 mM calcium added before heating; cited from earlier work.
On the set-up of data set [6]: method as in doi:10.21608/jfds.2019.54698. As to conditions: cited from earlier work.

As for `O=C([O-])[O-].[Ca+2]` [Carbonate, calcium carbonate], in data set [1], the “thermal stability of milk during pasteurization” value (“thermal stability” for short) was “not reduced”. Moreover, the “cheese pH value higher than the control cheese” value in data set [2] is 0.19. In addition, the “increase of milk pH value compared to the control sample” value in data set [3] is recorded as 0.11.
As to `[Ca+2].[Cl-].[Cl-]` [Chloride, Calcium chloride], the “thermal stability” value in data set [1] is “not reduced”. The molecule further came in with a Springiness in data set [4] (5 mg Ca 100 g^−1 of milk) of 1.27 mm. In addition, the “reduction of pH of cow's milk” value in data set [5] is on record as “up to 0.64”. The “pH of Karish cheese” value in data set [6] (200 mg 100 mL^−1 added to milk) is recorded as 4.69; in data set [6] (300 mg 100 mL^−1 added to milk) it was 4.50. The “reduction of milk pH value compared to the control sample” value in data set [3] (greatest reduction) is 0.23. Besides, the “reduction of milk pH” value in data set [3] (lowest dose of calcium, 5 mg 100 g^−1) is 0.17.
On to `O=C([O-])[C@H](O)[C@@H](O)[C@H](O)[C@H](O)CO.O=C([O-])[C@H](O)[C@@H](O)[C@H](O)[C@H](O)CO.[Ca+2]` [Gluconate, calcium gluconate], for which the “thermal stability” value in data set [1] was “not reduced”. For the same molecule, in data set [4] (15 mg Ca 100 g^−1 of milk), the Cohesiveness is on record as 0.30 and the Springiness was 3.94 mm. The molecule further had a pH in data set [2] (cheese, 20 mg Ca 100 g^−1 of milk) of 4.61.
On to `CC(O)C(=O)[O-].CC(O)C(=O)[O-].[Ca+2]` (stereo not drawn) [Lactate, calcium lactate], for which the “thermal stability” value in data set [1] is “not reduced”.
